Data published in the NIST ThermoML archive (doi:10.1021/acs.jced.8b00153).
Values joined by “and” are separate entries in the source; they are usually repeats but may differ in a detail not shown here. Equal values may be shown once.

Details: for speed of sound / mass density / vapor or sublimation pressure / viscosity: Liquid; for speed of sound: Frequency=3 MHz, Single path-length method; for mass density: Vibrating tube method; for vapor or sublimation pressure: Ebulliometric method (Recirculating still); for surface tension liquid-gas: Drop volume; for viscosity: Capillary tube (Ostwald / Ubbelohde) method

CCc1cccs1 [2-ethylthiophene]
Details	mass density	speed of sound [m/s]	viscosity [mPa·s]
313.15 K, 100 kPa	973.34 kg/m3 and 973.3 kg/m3	1237.7	–
313.15 K, 2000 kPa	975 kg/m3	–	–
313.15 K, 5000 kPa	977.54 kg/m3	–	–
313.15 K, 7000 kPa	979.22 kg/m3	–	–
313.15 K, 10000 kPa	981.68 kg/m3	–	–
313.15 K, 15000 kPa	985.61 kg/m3	–	–
313.15 K, 20000 kPa	989.42 kg/m3	–	–
313.15 K, 25000 kPa	993.09 kg/m3	–	–
313.15 K, 30000 kPa	996.63 kg/m3	–	–
313.15 K, 35000 kPa	1000.06 kg/m3	–	–
313.15 K, 40000 kPa	1003.38 kg/m3	–	–
313.15 K, 45000 kPa	1006.6 kg/m3	–	–
313.15 K, 50000 kPa	1009.71 kg/m3	–	–
313.15 K, 55000 kPa	1012.75 kg/m3	–	–
313.15 K, 60000 kPa	1015.69 kg/m3	–	–
313.15 K, 65000 kPa	1018.54 kg/m3	–	–
315.65 K, 100 kPa	970.77 kg/m3	1227.7	0.613
318.15 K, 100 kPa	968.32 kg/m3 and 968.24 kg/m3	1218	0.5981
318.15 K, 2000 kPa	970.02 kg/m3	–	–
318.15 K, 5000 kPa	972.64 kg/m3	–	–
318.15 K, 7000 kPa	974.36 kg/m3	–	–
318.15 K, 10000 kPa	976.86 kg/m3	–	–
318.15 K, 15000 kPa	980.93 kg/m3	–	–
318.15 K, 20000 kPa	984.83 kg/m3	–	–
318.15 K, 25000 kPa	988.58 kg/m3	–	–
318.15 K, 30000 kPa	992.22 kg/m3	–	–
318.15 K, 35000 kPa	995.71 kg/m3	–	–
318.15 K, 40000 kPa	999.11 kg/m3	–	–
318.15 K, 45000 kPa	1002.39 kg/m3	–	–
318.15 K, 50000 kPa	1005.57 kg/m3	–	–
318.15 K, 55000 kPa	1008.66 kg/m3	–	–
318.15 K, 60000 kPa	1011.66 kg/m3	–	–
318.15 K, 65000 kPa	1014.56 kg/m3	–	–
320.65 K, 100 kPa	965.71 kg/m3	1208.3	0.584
323.15 K, 100 kPa	963.21 kg/m3 and 963.18 kg/m3	1198	0.5702
323.15 K, 2000 kPa	964.97 kg/m3	–	–
323.15 K, 5000 kPa	967.69 kg/m3	–	–
323.15 K, 7000 kPa	969.44 kg/m3	–	–
323.15 K, 10000 kPa	972.03 kg/m3	–	–
323.15 K, 15000 kPa	976.2 kg/m3	–	–
323.15 K, 20000 kPa	980.22 kg/m3	–	–
323.15 K, 25000 kPa	984.06 kg/m3	–	–
323.15 K, 30000 kPa	987.78 kg/m3	–	–
323.15 K, 35000 kPa	991.35 kg/m3	–	–
323.15 K, 40000 kPa	994.81 kg/m3	–	–
323.15 K, 45000 kPa	998.17 kg/m3	–	–
323.15 K, 50000 kPa	1001.41 kg/m3	–	–
323.15 K, 55000 kPa	1004.56 kg/m3	–	–
323.15 K, 60000 kPa	1007.62 kg/m3	–	–
323.15 K, 65000 kPa	1010.59 kg/m3	–	–
325.65 K, 100 kPa	960.64 kg/m3	1188.3	0.5566
328.15 K, 100 kPa	958.12 kg/m3 and 958.1 kg/m3	1179.1	0.5437
328.15 K, 2000 kPa	959.94 kg/m3	–	–
328.15 K, 5000 kPa	962.71 kg/m3	–	–
328.15 K, 7000 kPa	964.53 kg/m3	–	–
328.15 K, 10000 kPa	967.18 kg/m3	–	–
328.15 K, 15000 kPa	971.45 kg/m3	–	–
328.15 K, 20000 kPa	975.56 kg/m3	–	–
328.15 K, 25000 kPa	979.5 kg/m3	–	–
328.15 K, 30000 kPa	983.31 kg/m3	–	–
328.15 K, 35000 kPa	986.98 kg/m3	–	–
328.15 K, 40000 kPa	990.51 kg/m3	–	–
328.15 K, 45000 kPa	993.94 kg/m3	–	–
328.15 K, 50000 kPa	997.24 kg/m3	–	–
328.15 K, 55000 kPa	1000.47 kg/m3	–	–
328.15 K, 60000 kPa	1003.58 kg/m3	–	–
328.15 K, 65000 kPa	1006.6 kg/m3	–	–
330.65 K, 100 kPa	955.55 kg/m3	1168.7	0.5313
333.15 K, 100 kPa	952.99 kg/m3 and 953 kg/m3	1159.1	0.519
333.15 K, 2000 kPa	954.85 kg/m3	–	–
333.15 K, 5000 kPa	957.72 kg/m3	–	–
333.15 K, 7000 kPa	959.58 kg/m3	–	–
333.15 K, 10000 kPa	962.31 kg/m3	–	–
333.15 K, 15000 kPa	966.72 kg/m3	–	–
333.15 K, 20000 kPa	970.93 kg/m3	–	–
333.15 K, 25000 kPa	974.97 kg/m3	–	–
333.15 K, 30000 kPa	978.86 kg/m3	–	–
333.15 K, 35000 kPa	982.61 kg/m3	–	–
333.15 K, 40000 kPa	986.22 kg/m3	–	–
333.15 K, 45000 kPa	989.73 kg/m3	–	–
333.15 K, 50000 kPa	993.09 kg/m3	–	–
333.15 K, 55000 kPa	996.39 kg/m3	–	–
333.15 K, 60000 kPa	999.56 kg/m3	–	–
333.15 K, 65000 kPa	1002.62 kg/m3	–	–
335.65 K, 100 kPa	950.44 kg/m3	1149.9	0.5072
338.15 K, 100 kPa	947.86 kg/m3 and 947.89 kg/m3	1140.3	0.4965
338.15 K, 2000 kPa	949.78 kg/m3	–	–
338.15 K, 5000 kPa	952.72 kg/m3	–	–
338.15 K, 7000 kPa	954.65 kg/m3	–	–
338.15 K, 10000 kPa	957.46 kg/m3	–	–
338.15 K, 15000 kPa	961.97 kg/m3	–	–
338.15 K, 20000 kPa	966.32 kg/m3	–	–
338.15 K, 25000 kPa	970.44 kg/m3	–	–
338.15 K, 30000 kPa	974.41 kg/m3	–	–
338.15 K, 35000 kPa	978.26 kg/m3	–	–
338.15 K, 40000 kPa	981.96 kg/m3	–	–
338.15 K, 45000 kPa	985.53 kg/m3	–	–
338.15 K, 50000 kPa	988.98 kg/m3	–	–
338.15 K, 55000 kPa	992.31 kg/m3	–	–
338.15 K, 60000 kPa	995.56 kg/m3	–	–
338.15 K, 65000 kPa	998.71 kg/m3	–	–

Details	surface tension liquid-gas [mN/m]	vapor or sublimation pressure [kPa]
315.55 K	–	3.01
315.65 K	28.16	–
318.15 K	27.84	–
320.65 K	27.54	–
321.73 K	–	4.095
323.15 K	27.27	–
325.65 K	26.93	–
326.03 K	–	5.05
328.15 K	26.69	–
330.65 K	26.36	–
330.78 K	–	6.285
333.15 K	26.03	–
335.65 K	25.74	–
336.67 K	–	8.17
338.15 K	25.45	–
342 K	–	10.22
346.57 K	–	12.34
351.71 K	–	15.14
356.68 K	–	18.34
360.83 K	–	21.48
365.1 K	–	24.99
370.4 K	–	30.07
374.16 K	–	34.19
379.56 K	–	40.88
382.77 K	–	45.27
387.16 K	–	51.94
390.75 K	–	57.93
394.79 K	–	65.36
397.67 K	–	71.07
401.74 K	–	79.78
404.64 K	–	86.5
406.64 K	–	91.35
409.15 K	–	97.8
410.46 K	–	101.33
